Data taken from patent US4536505A, “Certain N-(pyridyl) indoles” (Ciba-Geigy Corporation, priority 1983, dated 1985).

Tests used:
lipoxygenase = biological target: T1, lipoxygenase (Cavia porcellus, UniProt A0A286X958); test: lipoxygenase inhibition in guinea pig peritoneal neutrophils; assay type: cell-based; conditions: 14C-arachidonic acid (4 μM), A-23187 (2 μM), 37° C.; LTB4 and 5-HETE
T1 construct: Guinea pig peritoneal neutrophils; endogenous in cells; host or cells: guinea pig peritoneal neutrophils (elicited with sodium caseinate)
T1 sequence (A0A286X958 1-674): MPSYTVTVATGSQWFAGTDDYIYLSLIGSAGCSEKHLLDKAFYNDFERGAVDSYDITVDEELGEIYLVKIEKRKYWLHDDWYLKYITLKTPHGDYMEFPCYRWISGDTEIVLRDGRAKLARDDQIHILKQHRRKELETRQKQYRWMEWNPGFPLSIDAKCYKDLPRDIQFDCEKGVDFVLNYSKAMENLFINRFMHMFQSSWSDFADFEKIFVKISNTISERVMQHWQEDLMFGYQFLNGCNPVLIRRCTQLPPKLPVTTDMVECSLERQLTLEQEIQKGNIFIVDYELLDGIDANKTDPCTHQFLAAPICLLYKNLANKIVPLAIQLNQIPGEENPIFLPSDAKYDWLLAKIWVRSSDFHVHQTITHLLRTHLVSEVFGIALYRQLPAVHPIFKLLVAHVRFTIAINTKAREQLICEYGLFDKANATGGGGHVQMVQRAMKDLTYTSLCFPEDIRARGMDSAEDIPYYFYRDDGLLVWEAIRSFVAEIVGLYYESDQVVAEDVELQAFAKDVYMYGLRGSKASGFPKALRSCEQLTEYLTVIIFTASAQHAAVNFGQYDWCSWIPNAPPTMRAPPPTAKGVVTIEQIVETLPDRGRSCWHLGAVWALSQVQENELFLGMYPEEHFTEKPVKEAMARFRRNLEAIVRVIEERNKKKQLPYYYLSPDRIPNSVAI
Description: Guinea pig peritoneal neutrophils (elicited by an i.p. injection of sodium caseinate 17 hours prior to harvesting) are preincubated with indomethacin (1 μM) and test drugs for 5 minutes at 37° C. ^14 C-arachidonic acid (4 μM) and calcium ionophore A-23187 (2 μM) are added and the samples are incubated for another 5 minutes at 37° C. The reaction is terminated by the addition of 1N HCl and the products are extracted with ethyl acetate and separated by thin-layer chromatography; the plates are scanned and the radioactive zones corresponding to LTB4 and 5-HETE are scraped off, transferred to liquid scintillation vials and counted for radioactivity.

thromboxane synthetase = biological target: T2, thromboxane synthetase (Homo sapiens, UniProt P24557); test: in vitro inhibition of the thromboxane synthetase enzyme; assay type: biochemical, human (lysed human platelets); conditions: 30 minutes incubation; ratio T×B2/PGF2 α+β reduced to 50% of control
T2 construct: crude microsomal preparation of thromboxane synthetase from lysed human platelets; from tissue; host or cells: lysed human platelets, crude microsomal preparation
T2 sequence (P24557 1-533): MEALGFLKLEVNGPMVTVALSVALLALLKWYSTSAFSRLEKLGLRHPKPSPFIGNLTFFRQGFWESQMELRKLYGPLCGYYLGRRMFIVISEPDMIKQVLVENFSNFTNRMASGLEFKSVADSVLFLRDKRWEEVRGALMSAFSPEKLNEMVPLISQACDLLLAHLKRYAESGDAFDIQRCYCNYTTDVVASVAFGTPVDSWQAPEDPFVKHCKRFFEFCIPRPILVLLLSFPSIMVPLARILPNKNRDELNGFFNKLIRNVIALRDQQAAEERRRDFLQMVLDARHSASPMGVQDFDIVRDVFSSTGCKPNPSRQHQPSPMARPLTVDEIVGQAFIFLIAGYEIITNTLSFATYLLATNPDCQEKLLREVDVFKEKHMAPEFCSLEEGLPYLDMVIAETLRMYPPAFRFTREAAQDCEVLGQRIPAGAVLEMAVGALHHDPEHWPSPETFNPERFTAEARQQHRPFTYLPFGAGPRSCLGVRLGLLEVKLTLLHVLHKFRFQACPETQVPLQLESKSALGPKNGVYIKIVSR
Description: Res. Comm. 74, 1432 (1977); the testing procedure is as follows: ^14 C-Arachidonic acid is incubated with an enzyme consisting of solubilized and partially purified prostaglandin cyclo-oxygenase from sheep seminal vesicles and a crude microsomal preparation of thromboxane synthetase from lysed human platelets. The test compound (dissolved in buffer, or if necessary, in a small amount of ethanol) is added to the incubation medium. At the end of the incubation period (30 minutes), Prostaglandin E2 (PGE2) is reduced to a mixture of Prostaglandin F2 α and F2 β (PGF2 α+β) by addition of sodium borohydride. The radioactive products and excess substrate are extracted into ethyl acetate; the extract is evaporated to dryness; the residue is dissolved in acetone, spotted on thin-layer plates and chromatographed in the solvent system toluene:acetone:glacial acetic acid (100 volumes:100 volumes:3 volumes). The radioactive zones are located; those corresponding to Thromboxane B2 (T×B2) and PGF2 α+β are transferred to liquid scintillation vials and counted. The ratio of counts for T×B2 /PGF2 α+β is calculated for each concentration of test compound and IC50 values are determined graphically as the concentration of test compound at which the ratio of T×B2 /PGF2 α+β is reduced to 50% of the control value.

thromboxane B2 = test: in vivo reduction of plasma levels of thromboxane (thromboxane B2) in rats after ionophore A23187; conditions: rat, oral dose of 0.04 mg/kg or lower
Description: (§1) The inhibition of the synthesis and the reduction of plasma levels of thromboxane is determined in vivo on administration to rats in the following manner (as adapted from the procedures described by Tai et al. in Anal. Biochem. 87:343, 1978 and by Salmon in Prostaglandins 15:383, 1978):
(§2) Rats are dosed with vehicle or test drug and injected intravenously with ionophore A23187 (0.5 mg/kg) two hours later. Blood is collected for analysis 2 minutes after the ionophore injection. A single aliquot of each plasma sample is assayed for thromboxane B2 and another aliquot for 6-keto-PGF1 α, the stable metabolites of thromboxane A2 and prostacyclin (PGI2) respectively, by radioimmunoassay.

prostacyclin = test: in vivo plasma level of prostacyclin (6-keto-PGF1 α) in rats after ionophore A23187; conditions: rat, oral dose of 0.04 mg/kg or lower
Description: as §1, §2

bleeding time in the rat = assay type: in vivo; conditions: about 1.0 mg/kg p.o.
Source text: Indicative of the utility in thromboembolism, compounds of this invention also prolong bleeding time in the rat.

[1] = biological target: T3, prostaglandin cyclooxygenase (Ovis aries, UniProt P05979); test: in-vitro effect on prostaglandin cyclooxygenase; assay type: biochemical, sheep (seminal vesicle microsomes); conditions: 50% reduction in the amount of PGE2 synthesized; read-out: IC50 for cyclooxygenase inhibition
T3 construct: Lyophilized sheep seminal vesicle microsomes are utilized as the prostaglandin-synthesizing enzyme preparation; from tissue; host or cells: lyophilized sheep seminal vesicle microsomes
T3 sequence (P05979 25-600): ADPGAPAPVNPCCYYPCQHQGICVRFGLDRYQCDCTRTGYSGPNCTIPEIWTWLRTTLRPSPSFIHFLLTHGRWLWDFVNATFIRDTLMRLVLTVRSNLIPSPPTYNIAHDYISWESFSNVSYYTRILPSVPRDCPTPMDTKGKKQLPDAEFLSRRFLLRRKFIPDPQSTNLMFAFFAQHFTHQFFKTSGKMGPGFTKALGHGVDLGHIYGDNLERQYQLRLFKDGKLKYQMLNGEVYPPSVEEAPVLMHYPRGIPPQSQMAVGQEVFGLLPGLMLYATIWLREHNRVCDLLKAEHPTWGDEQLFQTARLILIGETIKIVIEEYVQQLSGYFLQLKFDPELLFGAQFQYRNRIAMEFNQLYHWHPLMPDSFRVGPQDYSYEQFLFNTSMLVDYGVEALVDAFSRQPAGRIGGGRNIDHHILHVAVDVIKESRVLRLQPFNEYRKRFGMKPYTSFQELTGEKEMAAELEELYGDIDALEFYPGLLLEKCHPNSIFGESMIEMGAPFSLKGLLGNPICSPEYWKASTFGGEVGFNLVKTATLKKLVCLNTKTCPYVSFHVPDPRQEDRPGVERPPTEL
Description: The in-vitro effect on prostaglandin cyclooxygenase is measured by a modification of the method of Takeguchi et al. described in Biochemistry 10, 2372 (1971); the testing procedure is as follows:
Lyophilized sheep seminal vesicle microsomes are utilized as the prostaglandin-synthesizing enzyme preparation. The conversion of ^14 C-arachidonic acid to PGE2 is measured. Test compounds (dissolved in buffer, or if necessary, in a small amount of ethanol) are added to the incubation mixture. The prostaglandins are extracted and separated by thin-layer chromatography; the plates are scanned, the radioactive zones corresponding to PGE2 are transferred to liquid scintillation vials and counted for radioactivity. IC50 values for inhibition are determined graphically as the concentration of test compound causing a 50% reduction in the amount of PGE2 synthesized.

Row | Compound | IC50 (lipoxygenase) [µM] | IC50 (thromboxane synthetase) [nM] | decrease of plasma concentration of thromboxane B2 (thromboxane B2) | increase in the plasma level of prostacyclin (prostacyclin) | prolongation of bleeding time (bleeding time in the rat) | IC50 [1] [mM]
1 | O=C(O)CCCCc1cn(-c2cccnc2)c2ccc(Cl)cc12 [3-(4-carboxybutyl)-5-chloro-N-(3-pyridyl)indole] | ~30 | ~2.6 |  |  |  | 
2 | O=C(O)CCCCc1cn(-c2cccnc2)c2ccccc12 [3-(4-carboxybutyl)-N-(3-pyridyl)indole] |  | ~1.1 | over 50% | approximately 5 fold | prolongs bleeding time | > 1
3 | O=C(O)CCCCCc1cn(-c2cccnc2)c2ccccc12 [3-(5-carboxypentyl)-N-(3-pyridyl)indole] |  | ~4 |  |  |  | 
